In patent publication US8993622B2, “Antiviral compounds” (Eirium AB, priority 2010, dated 2015):

Key:
RCAd11pGFP vector = assay: Screening assay: GFP expression from RCAd11pGFP vector in K562 cells; type: cell-based; conditions: Human adenovirus sp., K562, 24 h, read-out: 50% inhibitory concentration (IC50), inhibition of GFP expression
Excerpt: The screening assay is based on GFP expression from the RCAd11pGFP vector in a K562 cell system. […] To be considered as a potential hit, the compound had to decrease the intensity of fluorescence by more than 80% and kill no more than 50% of the cells. […] None of the compounds selected for further study were autofluorescent.
To verify the hits and to exclude false positives, the compounds were serially diluted in 7 steps for dose-response analysis using the screening assay. […] Twenty-four compounds met these criteria. The distribution of fluorescence inhibition and cellular toxicity detected in the screening process of these 24 hits is summarized in FIG. 1. One of the most efficient and least toxic compounds was A02, 2-[[2-(benzoylamino)benzoyl]amino]-benzoic acid. This compound was evaluated further as a potential drug candidate.

[1] = test system: Ad5 binding to A549 cells; assay: Binding of 35S-labelled Ad5 virions to A549 cells; type: cell-based, human adenovirus; conditions: 15 μM
Protocol: A549 cells were washed twice and detached from the culture flask with 0.05% EDTA in PBS, resuspended in culture medium, and allowed to recover for 1 h at 37° C. The cell suspension was centrifuged at room temperature at 450 g for 5 min and resuspended in PBS containing 1% FBS and 0.01% NaN3 (PBS-FBS-NaN3); 200,000 cells per well were dispensed in a 96-well microtiter plate (Nunc). The plate was placed on ice and the compound was added to final concentrations of 5 μM and 15 μM. The final concentration of DMSO was less than 1% in all samples. Five pg […] Ad5 virions (with labeling done as described previously by Segerman et al. 2003 (Journal of Virology 77:1157-1162)) were added per cell and the plate was incubated on ice on a rocking platform for 1 h. Following incubation the cells were washed three times with PBS-FBS-NaN3, pelleted by centrifugation at 800 g for 5 min at 4° C. and resuspended in 100 μl PBS. The suspension was transferred to scintillation tubes containing 2 ml scintillation liquid (Wallac OptiPhase HiSafe 3, PerkinElmer) and cell-associated radioactivity was measured as counts per minute (cpm) using a liquid scintillation counter (Wallac 1409).

Ad5 hexon protein = assay: FACS analysis of Ad5 hexon protein expression in A549 cells; type: cell-based, human adenovirus; conditions: 24 h
Protocol: FIG. 4. A. Binding of ^35S-labelled Ad5 to A549 cells in the presence of A02. Error bars represent the standard deviation of the means from three independent duplicate experiments. B. Flowcytometry assay detecting Ad5 (grey bars) and Ad11 (checkered bars) hexon protein following 24 h incubation with virus and compound A02. Error bars represent the standard deviation of the means from two independent duplicate experiments.
A binding assay using isotope-labeled virions was used to address whether the compound would prevent viral adhesion to host cells. At 15 μM, compound A02 has no effect on Ad5 binding to the surface of A549 cells (FIG. 4A). To further verify inhibition of viral replication, the effect on the expression of the most abundant viral structural protein (hexon) in A549 cells was studied by FACS analysis.

Tn5 transponase = molecular target: T1, Tn5 transponase (Escherichia coli, UniProt Q46731); conditions: US 2006/0035245; cited from earlier work
T1 sequence (Q46731 1-476): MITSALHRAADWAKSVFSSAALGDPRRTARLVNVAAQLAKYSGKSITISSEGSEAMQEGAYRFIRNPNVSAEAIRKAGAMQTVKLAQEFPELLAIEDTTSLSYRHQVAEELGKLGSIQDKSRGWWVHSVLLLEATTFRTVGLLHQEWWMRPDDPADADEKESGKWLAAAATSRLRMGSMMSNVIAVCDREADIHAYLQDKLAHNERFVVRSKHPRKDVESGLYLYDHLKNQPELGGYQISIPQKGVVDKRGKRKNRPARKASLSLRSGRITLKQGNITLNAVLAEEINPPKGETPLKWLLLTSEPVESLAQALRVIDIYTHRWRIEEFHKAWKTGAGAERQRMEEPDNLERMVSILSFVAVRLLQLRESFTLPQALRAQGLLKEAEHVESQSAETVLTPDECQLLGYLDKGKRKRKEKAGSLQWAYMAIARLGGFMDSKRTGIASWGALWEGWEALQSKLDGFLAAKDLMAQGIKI

O=C(Nc1ccccc1C(=O)Nc1ccccc1C(=O)O)c1ccccc1 [Compound A02, 2-[[2-(Benzoylamino)benzoyl]amino]-benzoic acid]
IC50 (RCAd11pGFP vector): 28.6 µM | effect on Ad5 binding to the surface of A549 cells [1]: no effect | expression of Ad5 hexon protein (Ad5 hexon protein): inhibited by compound A02 in a dose-dependent manner | inhibition of Tn5 transponase (Tn5 transponase): found to inhibit
